The values below come from PMC7444661 (Journal of medicinal chemistry, 2019).

Data set [1] is described as follows: Liver microsome stability. In kind it is in vitro ADME, dog, mouse, rat and monkey. The note with it: human. For orientation: Liver microsomes are a subcellular fraction often used to study metabolism.
Another data set is described as follows: Pharmacokinetics in mice. In kind it is in vivo. The note with it: oral.
Data set [2] addresses T1, PDE4D7-S129D (Homo sapiens, UniProt Q08499, S190D/S715A/S717A). Put plainly: PDE4D7-S129D inhibition in the presence of bovine serum albumin. To be noted: bovine serum albumin at 1 mg/mL.
Data set [3] addresses T1, PDE4D7-S129D. Kind of data set: PDE4 coupled enzyme assay of cAMP hydrolysis, PDE4D7-S129D. To be noted: mean ± SD. In kind it is biochemical.
For a further data set, the target named is PDE4B1-S133D (Homo sapiens, UniProt Q07343, S133D/S659A/S661A). Kind of data set: PDE4 coupled enzyme assay of cAMP hydrolysis, PDE4B1-S133D. In kind it is biochemical. The note with it: mean ± SD.
The target of the next data set is PDE4D7-S129(wt) (Homo sapiens, UniProt Q08499, S715A/S717A). Put plainly: PDE4 coupled enzyme assay of cAMP hydrolysis, PDE4D7-S129. In kind it is biochemical. The note with it: mean ± SD.
A further data set addresses PDE4D3-S54D (Homo sapiens, UniProt Q08499, S190D/S715A/S717A). Put plainly: PDE4 coupled enzyme assay of cAMP hydrolysis, PDE4D3-S54D. In kind it is biochemical. The note with it: mean ± SD.
The target of another data set is PDE4D2 (Homo sapiens, UniProt Q08499, S715A/S717A). Put plainly: PDE4 coupled enzyme assay of cAMP hydrolysis, PDE4D2. In kind it is biochemical. The note with it: mean ± SD.
Another data set addresses PDE4D-cat (Homo sapiens, UniProt Q08499, S715A/S717A). Put plainly: PDE4 coupled enzyme assay of cAMP hydrolysis, PDE4D-cat. To be noted: mean ± SD. In kind it is biochemical.
The test system of data set [4] is mice. Kind of data set: Mouse novel object recognition after 24-hour delay. To be noted: mouse NOR. In kind it is in vivo, Male ICR mice.
Data set [5] concerns mice. Kind of data set: Anesthesia duration test. In kind it is in vivo, Male ICR mice. The note with it: mouse.
The next data set has as its system PDE1-11. Put plainly: Counter assays against PDE1-11. In kind it is biochemical. To be noted: read-out: off target IC50 against PDE1-11; BPS Bioscience, all assays.
The test system of data set [6] is rats. Kind of data set: Safety pharmacology, CNS and pulmonary, rats. In kind it is in vivo. The note with it: up to a maximum oral dose of 60 mg/kg.
The next data set concerns dog. Put plainly: Safety pharmacology, cardiovascular function, dog. In kind it is in vivo. To be noted: up to a maximum oral dose of 100 mg/kg.
The subject of data set [7] is rats. Put plainly: Dose range finding toxicology, rats. In kind it is in vivo. To be noted: oral dose of 100 mg/kg.
Another data set relates to dogs. Put plainly: Dose range finding toxicology, dogs. In kind it is in vivo. To be noted: 100 mg/kg.
A further data set deals with rats and dogs. Put plainly: Toxicological studies of 28 and 90 days duration. In kind it is in vivo.
The subject of another data set is ferrets. Put plainly: Emesis in ferrets. The note with it: oral doses up to 30 mg/kg. In kind it is in vivo.
A further data set has as its system cynomolgus monkeys. Kind of data set: Emesis in cynomolgus monkeys. In kind it is in vivo. The note with it: oral doses up to 50 mg/kg.
The test system of a further data set is FMR1 knockout mice. The note with it: cited from earlier work.
In another data set the test system is humanized PDE4D mice. The note with it: cited from earlier work.
Another data set has as its system bacteria. Kind of data set: Mutagenicity in bacteria.
A short description of data set [8]: Metabolite identification in human hepatocytes. To be noted: compound 23 incubated 4 hour with human hepatocytes. In kind it is in vitro ADME.
Data set [9] can be described thus: Metabolite identification in rat hepatocytes. In kind it is in vitro ADME, male Wistar rats. To be noted: compound 23 incubated 4 hour with rat hepatocytes.

The structures appear in SMILES notation.

T1 sequence (Q08499 1-748 isoform Q08499-11 S129D/S654A/S656A): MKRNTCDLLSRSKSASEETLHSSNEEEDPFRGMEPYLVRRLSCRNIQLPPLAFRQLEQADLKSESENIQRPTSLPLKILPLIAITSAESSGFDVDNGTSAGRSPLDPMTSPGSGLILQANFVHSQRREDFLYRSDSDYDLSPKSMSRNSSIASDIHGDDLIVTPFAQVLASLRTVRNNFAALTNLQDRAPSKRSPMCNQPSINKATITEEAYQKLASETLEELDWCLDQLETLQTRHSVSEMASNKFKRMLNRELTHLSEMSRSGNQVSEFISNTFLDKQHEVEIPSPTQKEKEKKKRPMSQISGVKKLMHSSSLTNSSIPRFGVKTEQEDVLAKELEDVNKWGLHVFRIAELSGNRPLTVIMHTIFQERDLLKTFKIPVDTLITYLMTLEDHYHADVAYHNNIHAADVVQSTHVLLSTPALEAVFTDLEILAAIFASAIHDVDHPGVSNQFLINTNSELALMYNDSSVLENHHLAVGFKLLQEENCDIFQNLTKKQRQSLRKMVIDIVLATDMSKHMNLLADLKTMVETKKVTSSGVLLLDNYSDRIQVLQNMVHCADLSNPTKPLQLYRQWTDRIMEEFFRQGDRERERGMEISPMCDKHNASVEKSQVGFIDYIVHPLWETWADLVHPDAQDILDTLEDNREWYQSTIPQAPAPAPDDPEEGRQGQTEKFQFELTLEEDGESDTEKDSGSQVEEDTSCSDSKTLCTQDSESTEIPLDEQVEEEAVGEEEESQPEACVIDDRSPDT
PDE4B1-S133D, sequence (Q07343 whole entry S133D/S659A/S661A): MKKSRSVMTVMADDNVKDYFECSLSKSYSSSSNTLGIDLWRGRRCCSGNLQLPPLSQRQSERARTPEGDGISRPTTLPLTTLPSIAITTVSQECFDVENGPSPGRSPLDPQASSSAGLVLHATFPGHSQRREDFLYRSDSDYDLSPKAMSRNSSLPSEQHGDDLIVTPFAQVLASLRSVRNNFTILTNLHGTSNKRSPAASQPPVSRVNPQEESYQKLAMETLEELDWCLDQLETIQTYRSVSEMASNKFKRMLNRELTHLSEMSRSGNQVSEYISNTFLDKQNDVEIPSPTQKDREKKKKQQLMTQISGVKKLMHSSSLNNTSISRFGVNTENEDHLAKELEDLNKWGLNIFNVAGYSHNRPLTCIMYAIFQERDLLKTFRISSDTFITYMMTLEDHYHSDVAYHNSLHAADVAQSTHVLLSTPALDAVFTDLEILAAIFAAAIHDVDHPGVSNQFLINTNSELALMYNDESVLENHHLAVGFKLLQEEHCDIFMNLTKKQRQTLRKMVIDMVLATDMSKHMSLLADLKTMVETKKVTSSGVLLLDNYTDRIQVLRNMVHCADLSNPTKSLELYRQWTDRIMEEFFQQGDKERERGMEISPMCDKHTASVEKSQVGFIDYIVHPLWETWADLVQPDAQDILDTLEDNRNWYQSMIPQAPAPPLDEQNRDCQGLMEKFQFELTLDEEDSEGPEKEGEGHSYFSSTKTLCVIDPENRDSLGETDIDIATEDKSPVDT
PDE4D7-S129(wt), sequence (Q08499 1-748 isoform Q08499-11 S654A/S656A): as the sequence (Q08499 1-748 isoform Q08499-11 S129D/S654A/S656A) above, with D129S counted along it
PDE4D3-S54D, sequence (Q08499 1-673 isoform Q08499-2 S54D/S579A/S581A): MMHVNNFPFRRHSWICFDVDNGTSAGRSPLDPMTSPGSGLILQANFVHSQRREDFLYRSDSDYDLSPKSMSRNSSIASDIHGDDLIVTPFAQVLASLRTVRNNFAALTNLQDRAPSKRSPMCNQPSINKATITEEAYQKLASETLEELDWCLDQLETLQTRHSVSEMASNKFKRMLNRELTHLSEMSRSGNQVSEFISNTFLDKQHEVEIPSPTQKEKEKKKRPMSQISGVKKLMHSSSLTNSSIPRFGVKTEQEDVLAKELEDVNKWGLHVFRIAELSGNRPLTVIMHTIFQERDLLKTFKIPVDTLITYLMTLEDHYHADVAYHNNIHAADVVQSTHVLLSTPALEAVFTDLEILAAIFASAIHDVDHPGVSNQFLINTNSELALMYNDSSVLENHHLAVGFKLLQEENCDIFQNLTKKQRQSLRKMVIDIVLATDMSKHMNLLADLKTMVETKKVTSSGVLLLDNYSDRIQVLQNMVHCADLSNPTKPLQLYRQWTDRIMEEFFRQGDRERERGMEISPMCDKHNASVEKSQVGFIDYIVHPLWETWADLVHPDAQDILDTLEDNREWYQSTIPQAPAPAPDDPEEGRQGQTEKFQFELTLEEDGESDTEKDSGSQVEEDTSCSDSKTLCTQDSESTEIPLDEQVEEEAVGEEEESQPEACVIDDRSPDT
PDE4D2, sequence (Q08499 303-809 S715A/S717A): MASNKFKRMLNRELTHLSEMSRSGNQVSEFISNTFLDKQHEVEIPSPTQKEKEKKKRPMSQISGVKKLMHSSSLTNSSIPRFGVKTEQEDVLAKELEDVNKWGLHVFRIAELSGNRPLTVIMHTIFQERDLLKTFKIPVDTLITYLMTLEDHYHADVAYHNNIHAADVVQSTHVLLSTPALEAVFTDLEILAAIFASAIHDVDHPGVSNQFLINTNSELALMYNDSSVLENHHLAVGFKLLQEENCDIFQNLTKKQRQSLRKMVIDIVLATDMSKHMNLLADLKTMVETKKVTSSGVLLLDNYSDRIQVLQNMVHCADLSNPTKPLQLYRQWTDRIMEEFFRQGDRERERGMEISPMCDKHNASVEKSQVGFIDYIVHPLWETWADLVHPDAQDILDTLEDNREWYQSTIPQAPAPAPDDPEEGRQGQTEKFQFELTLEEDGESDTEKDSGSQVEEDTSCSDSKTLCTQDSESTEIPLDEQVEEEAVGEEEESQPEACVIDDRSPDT
PDE4D-cat, sequence (Q08499 380-743 S715A/S717A): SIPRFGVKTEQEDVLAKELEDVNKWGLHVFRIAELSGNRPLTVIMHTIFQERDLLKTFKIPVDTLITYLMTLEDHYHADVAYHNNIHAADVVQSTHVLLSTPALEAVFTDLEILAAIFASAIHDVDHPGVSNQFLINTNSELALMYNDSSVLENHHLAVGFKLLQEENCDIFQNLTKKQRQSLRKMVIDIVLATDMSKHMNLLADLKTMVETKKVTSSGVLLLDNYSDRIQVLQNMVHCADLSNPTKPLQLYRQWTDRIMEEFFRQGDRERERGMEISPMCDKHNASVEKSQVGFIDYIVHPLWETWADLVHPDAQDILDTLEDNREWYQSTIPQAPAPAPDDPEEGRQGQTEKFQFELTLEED

Turning to `CCc1cc(Cc2ccc(CC(N)=O)cc2)nc(-c2cccc(Cl)c2)n1` [Compound 23, 2-(4-((2-(3-Chlorophenyl)-6-ethylpyrimidin-4-yl)methyl)phenyl)acetamide], in data set [1] (dog, mouse, rat and monkey liver microsomes, at 30 min), the “parent remaining in liver microsomes” value is listed as 54-90%. Also, the extended absorption in “Pharmacokinetics in mice” lay within 4 to 8 h. Also, the “shift in IC50 for PDE4D7-S129D inhibition in the presence of BSA” value on PDE4D7-S129D [2] was “no shift”.

For the compound `O=C(O)Cc1ccc(Cc2cc(-c3cccc(Cl)c3)nc(C(F)(F)F)c2)cc1` [Compound 28, 2-(4-((2-(3-chlorophenyl)-6-(trifluoromethyl)pyridin-4-yl)methyl)phenyl)acetic acid], the “Hill Slope PDE4D7-S129D dimer activated” value at PDE4D7-S129D [3] was 0.55± 0.12. At PDE4B1-S133D, the “Hill Slope PDE4B1-S133D dimer activated” value amounted to 0.92 ± 0.21. In addition, at PDE4D7-S129(wt), the “Hill Slope PDE4D7-S129(wt) dimer basal” value turned out to be 0.58 ± 0.11. For the same compound, on PDE4D3-S54D, the “Hill Slope PDE4D3-S54D dimer activated” value is 0.68 ± 0.14. Also, the “Hill Slope PDE4D2 monomer” value on PDE4D2 is recorded as 0.60± 0.16. For the same compound, the “Hill Slope PDE4D-cat monomer” value at PDE4D-cat came out at 1.2 ± 0.10. Moreover, the “remaining in liver microsomes” value in data set [1] (rat, mouse and dog liver microsomes, after 30 min incubation) is on record as 88-100%. In addition, the “doses that significantly improved novel object discrimination” value in the data set with mice [4] (oral (PO), versus vehicle) is listed as “above 0.3 mg/kg”. Also, the “effect on anesthesia duration” value in the data set on mice [5] (doses of 3, 10 and 30 mg/kg PO) was “no significant effect”. In the data set on mice [5] (doses up to 30 mg/kg), the “change in anesthesia duration” value was “no change”. In addition, in the data set with PDE1-11, the IC50 (usually the point on the concentration scale where inhibition reaches its midpoint) was over 10 µM. In addition, in the data set on rats [6], the “adverse CNS or pulmonary effects” value was “no adverse CNS or pulmonary effects”. Besides, the “effect on cardiovascular function” value with dog is “no effect”. In addition, the “dose range finding toxicology findings” value in the data set on rats [7] is “inappetence and weight loss”. Further, in the data set on dogs, the “dose range finding toxicology findings” value is “emesis, tremor and weight loss”. The “vascular toxicity and microscopic findings” value with rats and dogs is on record as “did not reveal vascular toxicity nor any other microscopic findings”. Moreover, the emesis entry in the data set on ferrets is reported as “did not cause emesis”. For the same compound, the emesis result with cynomolgus monkeys is “nor did it cause emesis”. Further, the “maturation of dendritic spines on layer 2/3 pyramidal cells” value in the data set with FMR1 knockout mice (FMR1 knockout mice) is listed as “promotes”. For the same compound, in the data set with FMR1 knockout mice, the “behavior of adult FMR1 knockout mice” value was “normalizes”. Also, the “potency in humanized PDE4D mice as compared to wild-type mice” value in the data set with humanized PDE4D mice is “increased potency”. In the data set on humanized PDE4D mice (mice), the “brain cAMP” value is reported as “increases”, the “late phase of hippocampal long-term potentiation (LTP)” value is on record as “augments”, the “phosphorylation of CREB” value is recorded as “increases” and the “production of brain-derived neurotrophic factor (BDNF) in hippocampus” value is “increases”. Further, in the data set with humanized PDE4D mice (mice), the “short and long term memory” value was “improves”. Besides, the mutagenicity in bacteria entry with bacteria is listed as “not mutagenic”.

As to `CCc1cc(Cc2ccc(CC(=O)NCCO)cc2)nc(-c2cccc(Cl)c2)n1` [Compound 29, 2-(4-((2-(3-Chlorophenyl)-6-ethylpyrimidin-4-yl)methyl)phenyl)-N-(2-hydroxyethyl)acetamide], on PDE4D7-S129D [3], the “Hill Slope PDE4D7-S129D dimer activated” value was 0.66± 0.03. The “Hill Slope PDE4B1-S133D dimer activated” value at PDE4B1-S133D is recorded as 0.37 ± 0.04. The “Hill Slope PDE4D7-S129(wt) dimer basal” value at PDE4D7-S129(wt) is 0.50 ± 0.1.

For the compound `COc1ccc(C2CNC(=O)C2)cc1OC1CCCC1` (stereo not drawn) [rolipram, reference compound], in the data set with mice [4] (SC), the “dose that significantly improved novel object discrimination” value was found to be 0.1 mg/kg.

For the compound `CCc1cc(Cc2ccc(CC(=O)O)cc2)nc(-c2cccc(Cl)c2)n1` [Compound M6], the “percentage of metabolite present” value in data set [8] is on record as under 1%; in data set [9], 29.1%.
